Experimental data published in US20210102200A1, “SMALL MOLECULE TARGETED RECRUITMENT OF A NUCLEASE TO RNA” (The Scripps Research Institute, priority 2018, published 2021).

Legend:
RNase L = target: T1, RNase L (Homo sapiens, UniProt Q05823); assay: In vitro RNase L oligomerization, TGP-210-RL study; format: biochemical; conditions: in vitro cross-linking
T1 construct: GST; made in house
T1 sequence (Q05823 1-741): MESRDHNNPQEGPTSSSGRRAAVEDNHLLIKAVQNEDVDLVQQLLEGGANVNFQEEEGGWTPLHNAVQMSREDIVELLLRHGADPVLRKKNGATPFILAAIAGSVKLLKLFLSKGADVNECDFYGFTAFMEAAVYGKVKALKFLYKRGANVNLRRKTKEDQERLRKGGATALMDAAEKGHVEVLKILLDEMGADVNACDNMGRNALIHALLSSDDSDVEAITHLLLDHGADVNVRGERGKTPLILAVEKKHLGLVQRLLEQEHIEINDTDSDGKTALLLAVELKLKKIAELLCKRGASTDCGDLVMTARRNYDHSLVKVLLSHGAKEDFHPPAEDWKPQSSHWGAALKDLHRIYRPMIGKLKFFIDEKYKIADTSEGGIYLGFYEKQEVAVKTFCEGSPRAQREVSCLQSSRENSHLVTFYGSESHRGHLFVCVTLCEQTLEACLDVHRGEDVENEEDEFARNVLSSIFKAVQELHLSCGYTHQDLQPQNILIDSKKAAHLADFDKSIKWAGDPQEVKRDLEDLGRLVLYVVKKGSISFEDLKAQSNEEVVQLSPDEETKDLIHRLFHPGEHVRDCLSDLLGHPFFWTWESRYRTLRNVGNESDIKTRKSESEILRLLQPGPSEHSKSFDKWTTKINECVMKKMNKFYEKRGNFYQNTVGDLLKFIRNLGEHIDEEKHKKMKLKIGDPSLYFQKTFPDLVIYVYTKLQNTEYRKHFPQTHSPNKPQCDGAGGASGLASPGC
Experimental: An aliquot of RNase L (3 μM) in 1×RNase L Buffer was supplemented with 10 mM MgCl2, fresh 7 mM β-mercaptoethanol, and 50 μM of ATP. Dilutions of 2′-5′ A4, TGP-210, or TGP-210-RL were prepared in 1×RNase L Buffer supplemented with 10 mM MgCl2, fresh 7 mM β-mercaptoethanol, and 50 μM of ATP and added to the solution of RNase L in a total volume of 17.4 μL. The RNase L/compound solutions were incubated at room temperature for 5 min and then 1 μL of 44 mM dimethyl suberimidate (Thomas Scientific) in 0.4 M triethanolamine hydrochloride, pH 8.5, was added. After incubating at room temperature for 2 h, 3.6 μL of 6×Laemmli buffer (375 mM Tris-HCl, pH 6.8, 0.03% bromophenol blue, 0.6% β-mercaptoethanol, 12% SDS, 60% glycerol) was added. After heat denaturing the samples at 95° C. for 5 min, the samples were diluted 1:90 in 1×Laemmli buffer and then resolved by SDS-PAGE. After transferring to a PVDF membrane, the membrane was blocked in 1×TBST [1×TBS with 0.1% Tween-20 (v/v)] containing 5% nonfat milk for 1 h. […] After washing the membrane five times for 5 min each with 1×TBST, protein levels were quantified by chemiluminescence with SuperSignal West Pico Chemiluminescent Substrate (Pierce Biotechnology) per the manufacturer's protocol. RNase L bands associated with monomeric or oligomeric signals were quantified using ImageJ software (National Institutes of Health).

DNA = assay: Microscale thermophoresis binding, DNA Hairpin
Experimental: MST fluorescent measurements were performed on a Monolith NT.115 system (NanoTemper Technologies) using the fluorescence of a 5′-Cy5 labeled miR-210 Hairpin RNA (5′—Cy5 […]) (SEQ ID NO: 11), a 5′-Cy5 miR-210 Mutant RNA (5′—Cy5 […]) (SEQ ID NO: 12), or a 5′ Cy5 DNA Hairpin (5′—Cy5 […]) (SEQ ID NO: 13) which were purchased from IDT with RNase-free HPLC purification and used without further purification. The RNA (5 nM) was prepared in 1×MST Buffer (8 mM Na2HPO4, 190 mM NaCl, 1 mM EDTA, and 0.05% (v/v) Tween-20) and folded by heating at 60° C. for 5 min, and slowly cooling to room temperature. Compounds (TGP-210 or TGP-210-RL) were diluted in 1×MST Buffer and then were added to a final concentration of 20 μM, followed by 1:2 dilutions in 1×MST Buffer containing 5 nM RNA. Alternatively, RNase L in 1×MST Buffer was added to a final concentration of 50 nM in addition to compound and RNA. […] Fluorescence measurements (Ex: 605-645 nm, Em: 680-685 nm) were performed at 20% LED and 80% MST power, with a Laser-On time of 30 s and Laser-Off time of 5 s. The data were analyzed by thermophoresis analysis and fitted by the quadratic binding equation in MST analysis software (NanoTemper Technologies). Dissociation constants were then determined by curve fitting using a single-site model.

MDA-MB-231 cells = assay: Caspase 3/7 activity in MDA-MB-231 cells; format: cell-based
Experimental: Approximately 5,000 MDA-MB-231 cells were plated into white, cell-culture treated, 96-well plates (Corning). At ˜60% confluency, cells were treated with dilutions of LNA-210, Scr-LNA, TGP-210, or TGP-210-RL and then placed under hypoxic or normoxic conditions. After 48 h, caspase 3/7 activity was measured using a Caspase-Glo 3/7 kit (Promega) according to the manufacturer's protocol. Alternatively, MDA-MB-231 cells were transfected with a plasmid overexpressing pre-miR-210 (Genecopoeia; HmiR0167-MR04) using Lipofectamine 2000 (Invitrogen). After 5 h of transfection, cells were plated into white, cell-culture treated 96-well plates (Corning) and then treated as described above. Fold change in Caspase activity was calculated by normalizing treated samples to the untreated samples after subtracting background sample values.

Targapremir-210 [TGP-210]
Oligomerization of RNase L (RNase L): not
Selectivity window between DNA and the Dicer site in pre-miR-210 (DNA): 5 fold
Kd (DNA; MST): 620 nM
Apoptotic stimulation (caspase activity) (MDA-MB-231 cells; hypoxic MDA-MB-231 cells, 48 h, TGP-210-RL at 500 nM): similar
Apoptosis upon miR-210 overexpression (MDA-MB-231 cells; miR-210 overexpressed background): no longer stimulated apoptosis
